Paper PMC7911889 (Viruses, 2021)

Biological target: SARS-CoV-2 3CL^pro (Severe acute respiratory syndrome coronavirus 2, UniProt P0DTD1)
Assay type: cell-based

| SMILES | Effect on luciferase reporter activity / 3CL^pro inhibition (in words) | EC50 (read-out: EC50, SARS-CoV-2 3CLpro luciferase complementation assay) [µM] |
| --- | --- | --- |
| CC(C)(C)NC(=O)N[C@H](C(=O)N1C[C@H]2[C@@H]([C@H]1C(=O)NC(CC1CCC1)C(=O)C(N)=O)C2(C)C)C(C)(C)C (stereo partly drawn) [Boceprevir] | clearly inhibited SARS-CoV-2 3CL^pro | – |
| CC(NC(=O)[C@H](Cc1ccccc1)NC(=O)OCc1ccccc1)C(=O)CF (stereo partly drawn) [Z-FA-FMK] | clearly inhibited SARS-CoV-2 3CL^pro | 26.3 |
